From the text: The following compounds were used as chelating agents in manufacture of cleaning liquids.

| pKa1 | pKa2 | pKa3 | pKa4 | pKa5 | pKa6 | pKa7 | pKa8 | SMILES |
| --- | --- | --- | --- | --- | --- | --- | --- | --- |
| 2.00 | 2.70 | 6.2 | 10.30 | – | – | – | – | O=C(O)CN(CCN(CC(=O)O)CC(=O)O)CC(=O)O [EDTA, Ethylenediaminetetraacetic acid] |
| 1.46 | 2.72 | 5.06 | 6.18 | 6.63 | 7.43 | 9.22 | 10.6 | O=P(O)(O)CN(CCN(CP(=O)(O)O)CP(=O)(O)O)CP(=O)(O)O [EDTPO, N,N,N′,N′-Ethylenediaminetetrakis(methylenephosphonic acid)] |
| 2.35 | 9.87 | – | – | – | – | – | – | NCCC(=O)O [ALA, β-Alanine] |
| – | 7.40 | – | – | – | – | – | – | O=C(O)C(O)C(O)C(=O)O (stereo not drawn) [Tartaric acid] |
| 1.35 | 2.87 | 7.03 | 11.3 | – | – | – | – | CC(O)(P(=O)(O)O)P(=O)(O)O [HEDP, 1-Hydroxyethylidene-1,1′-diphosphonic acid] |
| – | – | 6.71 | – | – | – | – | – | O=C(O)CC(O)(CC(=O)O)C(=O)O [Citric acid] |
| 2.14 | 2.38 | 4.26 | 8.60 | 10.53 | – | – | – | O=C(O)CN(CCN(CC(=O)O)CC(=O)O)CCN(CC(=O)O)CC(=O)O [DTPA, Diethylenetriaminepentaacetic acid] |
| 1.82 | 9.01 | 12.48 | – | – | – | – | – | N=C(N)NCCC[C@H](N)C(=O)O [Arginine] |
| 2.35 | 9.78 | – | – | – | – | – | – | NCC(=O)O [Gly, Glycine] |

Reference: patent US20210395645A1, “CLEANING LIQUID” (FUJIFILM Electronic Materials Co., Ltd., priority 2019, published 2021)
